We go through 17 compounds from patent publication US12180215B2, “Substituted pyrrolo[3,4-d]imidazoles as JAK inhibitors” (HENAN MEDINNO PHARMACEUTICAL TECHNOLOGY CO., LTD., priority 2019, dated 2024).

The target in assay [1] is T1, TYK2 (Homo sapiens, UniProt P29597).
T1 construct: purchased Invitrogen PV4790
Nature of the assay: TYK2 kinase ADP-Glo assay (Example 59). The format is biochemical. Conditions: for Hillslope, TYK2 Experiment: slope of the nonlinear IC50 fit; for IC50: TYK2 (Invitrogen) 4 nM, ATP 10 μM, IRS1 0.03 mg/mL, 25° C. 60 min, read-out: IC50 (nM), TYK2 Experiment.
T1 sequence (P29597 833-1187 limits assumed): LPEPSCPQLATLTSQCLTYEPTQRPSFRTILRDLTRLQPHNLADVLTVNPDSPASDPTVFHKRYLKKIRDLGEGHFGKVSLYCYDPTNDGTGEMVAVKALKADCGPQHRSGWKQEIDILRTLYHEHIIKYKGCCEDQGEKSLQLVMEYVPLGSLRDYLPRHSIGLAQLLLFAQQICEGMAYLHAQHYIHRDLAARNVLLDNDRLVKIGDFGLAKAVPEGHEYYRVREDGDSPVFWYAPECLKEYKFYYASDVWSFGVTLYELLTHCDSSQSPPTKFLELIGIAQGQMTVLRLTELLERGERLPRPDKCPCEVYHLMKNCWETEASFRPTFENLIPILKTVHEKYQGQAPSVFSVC

For assay [2], the target named is T2, JAK3 (Homo sapiens, UniProt P52333). Nature of the assay: JAK3 kinase ADP-Glo assay (Example 59). The format is biochemical. Also noted: purchased Invitrogen PV3855. The note with it: for Hillslope, JAK3 Experiment: slope of the nonlinear IC50 fit; for IC50: JAK3 (Invitrogen) 0.5 nM, ATP 10 μM, Poly (4:1 Glu, Tyr) 0.03 mg/mL, 25° C. 60 min, read-out: IC50 (nM), JAK3 Experiment. A general note: ADP-Glo first removes unused ATP, then detects ADP through luciferase.
Target sequence in this assay (P52333 781-1124 limits assumed): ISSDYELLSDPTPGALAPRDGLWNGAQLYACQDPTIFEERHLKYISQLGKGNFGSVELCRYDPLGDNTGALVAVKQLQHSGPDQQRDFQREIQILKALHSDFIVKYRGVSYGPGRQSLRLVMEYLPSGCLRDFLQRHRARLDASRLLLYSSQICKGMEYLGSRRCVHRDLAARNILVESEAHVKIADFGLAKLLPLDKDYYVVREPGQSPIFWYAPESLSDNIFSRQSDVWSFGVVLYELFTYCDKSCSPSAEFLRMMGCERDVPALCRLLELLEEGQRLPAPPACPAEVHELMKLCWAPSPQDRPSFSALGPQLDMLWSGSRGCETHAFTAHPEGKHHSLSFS

Assay [3] concerns the target T3, JAK1 (Homo sapiens, UniProt P23458). Kind of assay: JAK1 kinase ADP-Glo assay (Example 59). More on the design: purchased Invitrogen PV4774. The format is biochemical. Conditions: for Hillslope, JAK1 Experiment: slope of the nonlinear IC50 fit; for IC50: JAK1 (Invitrogen) 4 nM, ATP 20 μM, IRS1 0.05 mg/mL, 25° C. 60 min, read-out: IC50 (nM), JAK1 Experiment.
Target sequence in this assay (P23458 866-1154 limits assumed): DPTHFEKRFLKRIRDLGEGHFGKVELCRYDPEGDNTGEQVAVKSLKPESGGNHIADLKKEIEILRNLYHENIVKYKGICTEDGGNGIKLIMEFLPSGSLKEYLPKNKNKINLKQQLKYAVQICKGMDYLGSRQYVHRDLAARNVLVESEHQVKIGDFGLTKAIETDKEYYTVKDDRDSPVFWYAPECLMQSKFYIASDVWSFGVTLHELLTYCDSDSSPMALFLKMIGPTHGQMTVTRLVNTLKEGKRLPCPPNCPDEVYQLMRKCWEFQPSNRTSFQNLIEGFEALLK
The target in assay [4] is T4, JAK2 (Homo sapiens, UniProt O60674). Kind of assay: JAK2 kinase ADP-Glo assay (Example 59). Conditions: for Hillslope, JAK2 Experiment: Example 59, slope of the nonlinear IC50 fit.
Target sequence in this assay (O60674 808-1132 limits assumed): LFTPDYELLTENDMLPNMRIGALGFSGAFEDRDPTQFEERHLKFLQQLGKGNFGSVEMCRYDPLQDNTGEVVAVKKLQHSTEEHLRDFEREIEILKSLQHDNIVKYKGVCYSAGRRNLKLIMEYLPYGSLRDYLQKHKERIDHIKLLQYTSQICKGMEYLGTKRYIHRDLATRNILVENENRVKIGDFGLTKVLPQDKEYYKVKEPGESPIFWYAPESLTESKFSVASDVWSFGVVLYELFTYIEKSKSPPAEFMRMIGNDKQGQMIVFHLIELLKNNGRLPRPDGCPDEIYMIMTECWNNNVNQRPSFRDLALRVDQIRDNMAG
Assay [5] deals with T4, JAK2. Kind of assay: JAK2 kinase ADP-Glo assay (Example 60).
Target sequence in this assay (O60674 826-1132 limits assumed): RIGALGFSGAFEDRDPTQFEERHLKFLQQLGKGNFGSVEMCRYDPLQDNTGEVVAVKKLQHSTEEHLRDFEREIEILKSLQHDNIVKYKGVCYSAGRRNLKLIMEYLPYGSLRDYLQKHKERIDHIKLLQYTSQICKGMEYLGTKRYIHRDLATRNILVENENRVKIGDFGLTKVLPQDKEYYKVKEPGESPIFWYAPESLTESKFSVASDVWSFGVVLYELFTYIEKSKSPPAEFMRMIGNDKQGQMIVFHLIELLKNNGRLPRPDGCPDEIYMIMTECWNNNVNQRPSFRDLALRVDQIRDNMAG
For assay [6], the target named is T5, TYK2 (Homo sapiens, UniProt P29597).
T5 sequence (P29597 871-1187 limits assumed): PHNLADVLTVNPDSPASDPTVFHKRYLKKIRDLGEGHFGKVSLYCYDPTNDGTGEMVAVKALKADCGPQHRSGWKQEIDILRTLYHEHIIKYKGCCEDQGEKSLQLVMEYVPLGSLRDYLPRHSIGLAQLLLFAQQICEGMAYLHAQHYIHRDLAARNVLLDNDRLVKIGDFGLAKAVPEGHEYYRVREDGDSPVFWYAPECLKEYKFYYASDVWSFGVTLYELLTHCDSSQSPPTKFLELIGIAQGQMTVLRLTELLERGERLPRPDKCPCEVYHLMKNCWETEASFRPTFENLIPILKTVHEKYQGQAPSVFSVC
Kind of assay: TYK2 kinase ADP-Glo assay (Example 60).

For assay [7], the target named is T2, JAK3. Nature of the assay: JAK3 kinase ADP-Glo assay (Example 60).
Target sequence in this assay (P52333 795-1124 limits assumed): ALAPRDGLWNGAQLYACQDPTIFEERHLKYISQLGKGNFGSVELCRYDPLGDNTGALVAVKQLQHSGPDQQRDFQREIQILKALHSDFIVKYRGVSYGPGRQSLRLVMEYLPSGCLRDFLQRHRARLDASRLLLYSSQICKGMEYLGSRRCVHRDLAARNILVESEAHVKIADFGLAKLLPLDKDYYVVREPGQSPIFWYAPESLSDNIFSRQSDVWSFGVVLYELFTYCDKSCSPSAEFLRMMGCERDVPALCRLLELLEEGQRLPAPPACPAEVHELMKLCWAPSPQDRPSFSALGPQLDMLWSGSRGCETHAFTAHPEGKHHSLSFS
Assay [8] addresses T3, JAK1. Kind of assay: JAK1 kinase ADP-Glo assay (Example 60).
Target sequence in this assay (P23458 850-1154 limits assumed): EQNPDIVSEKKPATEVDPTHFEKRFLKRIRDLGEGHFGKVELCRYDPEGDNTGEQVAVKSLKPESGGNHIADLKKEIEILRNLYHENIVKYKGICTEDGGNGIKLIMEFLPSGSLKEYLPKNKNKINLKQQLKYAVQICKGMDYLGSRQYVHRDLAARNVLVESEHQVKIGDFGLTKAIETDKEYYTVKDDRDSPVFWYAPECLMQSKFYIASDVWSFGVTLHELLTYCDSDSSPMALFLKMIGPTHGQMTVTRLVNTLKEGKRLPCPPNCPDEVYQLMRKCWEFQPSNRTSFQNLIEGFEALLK

What is called IC50 is the midpoint of a concentration-inhibition curve.

On to `O=C(Nc1nc2cccc(-c3ccc(CN4CCS(=O)(=O)CC4)cc3)n2n1)C1CC1` [Filgotinib, reference compound], for which the “Hillslope, TYK2 Experiment” value on TYK2 [1] came to 1.037. Further, the “Hillslope, JAK3 Experiment” value on JAK3 [2] worked out at 1.318. Further, the “Hillslope, JAK1 Experiment” value at JAK1 [3] is reported as 1.067. Further, at JAK2 [4], the “Hillslope, JAK2 Experiment” value is given as 1.142.

As for `CCc1cc(O)c(F)cc1-c1ccc2c(-c3nc4c([nH]3)CN(C(=O)c3cnc(N5CCCCC5)cn3)C4)n[nH]c2c1` [MDI-2, (2-(6-(2-ethyl-5-fluoro-4-hydroxyphenyl)-1H-indazol-3-yl)-4,6-dihydropyrrolo[3,4-d]imidazol-5(1H)-yl)(5-(piperidin-1-yl)pyrazin-2-yl)ketone], the IC50 on TYK2 [1] amounted to 1.63 nM; on JAK3 [2], 0.765 nM; on JAK1 [3], 0.806 nM; at JAK2 [4] it was 772 pM.

`CCc1cc(O)c(F)cc1-c1ccc2c(-c3nc4c([nH]3)CN(C(=O)c3cnc(N5CCOCC5)cn3)C4)n[nH]c2c1` [MDI-201, (2-(6-(2-ethyl-5-fluoro-4-hydroxyphenyl)-1H-indazol-3-yl)-4,6-dihydropyrrolo[3,4-d]imidazol-5(1H)-yl)(5-morpholinepyrazin-2-yl)ketone]: on TYK2 [1], the 50% inhibitory concentration (IC50) amounted to 0.281 nM and the “Hillslope, TYK2 Experiment” value was found to be 1.411. Also, at JAK3 [2], the half-inhibitory concentration (IC50) was determined as 0.187 nM and the “Hillslope, JAK3 Experiment” value is on record as 1.989. Further, at JAK1 [3], the IC50 was determined as 0.138 nM and the “Hillslope, JAK1 Experiment” value is 3.487. For the same compound, at JAK2 [4], the IC50 came to 217 pM and the “Hillslope, JAK2 Experiment” value was determined as 1.633.

With `CCc1cc(O)c(F)cc1-c1ccc2c(-c3nc4c([nH]3)CN(C(=O)c3cnn(C)c3)C4)n[nH]c2c1` [MDI-202, (2-(6-(2-ethyl-5-fluoro-4-hydroxyphenyl)-1H-indazol-3-yl)-4,6-dihydropyrrolo[3,4-d]imidazol-5(1H)-yl)(1-methyl-1H-pyrazol-4-yl)ketone], the IC50 is 0.318 nM at TYK2 [1], 0.16 nM on JAK3 [2], 0.125 nM at JAK1 [3] and 279 pM against JAK2 [4].

As for `CCc1cc(O)c(F)cc1-c1ccc2c(-c3nc4c([nH]3)CN(C(=O)C3CCN(C)CC3)C4)n[nH]c2c1` [MDI-203, (2-(6-(2-ethyl-5-fluoro-4-hydroxyphenyl)-1H-indazol-3-yl)pyrrolo[3,4-d]imidazol-5(1H, 4H,6H)-yl)(1-methylpiperidin-4-yl)ketone], the IC50 stood at 0.328 nM on TYK2 [1], 0.212 nM on JAK3 [2], 0.16 nM on JAK1 [3] and 208 pM on JAK2 [4].

As for `CCc1cc(O)c(F)cc1-c1ccc2c(-c3nc4c([nH]3)CN(C(=O)c3cnc(N5CCN(C)CC5)cn3)C4)n[nH]c2c1` [MDI-204, (2-(6-(2-ethyl-5-fluoro-4-hydroxyphenyl)-1H-indazol-3-yl)pyrrolo[3,4-d]imidazol-5(1H,4H,6H)-yl)(5-(4-methylpiperazin-1-yl)pyrazin-2-yl)ketone], the half-inhibitory concentration (IC50) at TYK2 [1] came to 0.2 nM; on JAK3 [2], 0.238 nM; on JAK1 [3], 0.152 nM; at JAK2 [4], 176 pM.

Turning to `CCc1cc(O)ccc1-c1ccc2c(-c3nc4c([nH]3)CN(C(=O)c3cnc(N5CCN(C)CC5)cn3)C4)n[nH]c2c1` [MDI-205, (2-(6-(2-ethyl-4-hydroxyphenyl)-1H-indazol-3-yl)pyrrolo[3,4-d]imidazol-5(1H,4H,6H)-yl)(5-(4-methylpiperazin-1-yl)pyrazin-2-yl)ketone], the half-maximal inhibitory concentration (IC50) on TYK2 [1] worked out at 0.194 nM; at JAK3 [2] it was 0.178 nM; at JAK1 [3] it was 0.121 nM; against JAK2 [4], 158 pM.

As for `CCc1cc(O)c(F)cc1-c1ccc2c(-c3nc4c([nH]3)CN(S(=O)(=O)c3ccccc3)C4)n[nH]c2c1` [MDI-206, 5-ethyl-2-fluoro-4-(3-(5-(benzenesulfonyl)-1,4,5,6-tetrahydropyrrolo[3,4-d]imidazol-2-yl)-1H-indazol-6-yl)phenol], at TYK2 [1], the concentration for half-maximal inhibition (IC50) came to 7.23 nM and the “Hillslope, TYK2 Experiment” value came out at 0.744. At JAK3 [2], the IC50 worked out at 0.628 nM and the “Hillslope, JAK3 Experiment” value turned out to be 1.216. On JAK1 [3], the IC50 amounted to 0.943 nM and the “Hillslope, JAK1 Experiment” value is given as 1.091. Moreover, at JAK2 [4], the IC50 worked out at 556 pM and the “Hillslope, JAK2 Experiment” value amounted to 1.457.

Take `CCc1cc(O)c(F)cc1-c1ccc2c(-c3nc4c([nH]3)CN(Cc3cnccn3)C4)n[nH]c2c1` [MDI-207, 5-ethyl-2-fluoro-4-(3-(5-(pyrazin-2ylmethyl)-1,4,5,6-tetrahydropyrrolo[3,4-d]imidazol-2-yl)-1H-indazol-6-yl)phenol]: the IC50 at TYK2 [1] stood at 0.474 nM; on JAK3 [2], 0.132 nM; on JAK1 [3], 0.12 nM; on JAK2 [4], 160 pM.

In the case of `CCc1cc(O)c(F)cc1-c1ccc2c(-c3nc4c([nH]3)CN(C(=O)C3CC3)C4)n[nH]c2c1` [MDI-209, cyclopropyl (2-(6-(2-ethyl-5-fluoro-4-hydroxyphenyl)-1H-indazol-3-yl)pyrrolo[3,4-d]imidazol-5(1H, 4H,6H)-yl)ketone], the IC50 came to 0.281 nM on TYK2 [1], 0.158 nM at JAK3 [2], 0.128 nM on JAK1 [3] and 165 pM against JAK2 [4].

Turning to `CCc1cc(O)c(F)cc1-c1ccc2c(-c3nc4c([nH]3)CN(C(=O)C3CCC3)C4)n[nH]c2c1` [MDI-211, cyclobutyl (2-(6-(2-ethyl-5-fluoro-4-hydroxyphenyl)-1H-indazol-3-yl)pyrrolo[3,4-d]imidazol-5(1H, 4H,6H)-yl)ketone], the IC50 at TYK2 [1] was determined as 0.266 nM; on JAK3 [2], 0.16 nM; on JAK1 [3] it was 0.162 nM; on JAK2 [4] it was 198 pM.

As for `CCc1cc(O)c(F)cc1-c1ccc2c(-c3nc4c([nH]3)CN(C3CCC(O)CC3)C4)n[nH]c2c1` (stereo not drawn) [MDI-217, 5-ethyl-2-fluoro-4-(3-(5-(4-hydroxylcyclohexyl)-1,4,5,6-tetrahydropyrrolo[3,4-d]imidazol-2-yl)-1H-indazol-6-yl)phenol], the half-inhibitory concentration (IC50) is 0.391 nM at TYK2 [1], 0.137 nM on JAK3 [2] and 0.122 nM at JAK1 [3].

As to `CCc1cc(O)c(F)cc1-c1ccc2c(-c3nc4c([nH]3)CN(C(=O)NC3CC3)C4)n[nH]c2c1` [MDI-259, N-cyclopropyl-2-(6-(2-ethyl-5-fluoro-4-hydroxyphenyl)-1H-indazol-3-yl)-4,6-dihydropyrrolo[3,4-d]imidazol-5(1H)-carboxamide], the half-maximal inhibitory concentration (IC50) against JAK2 [5] was 1300 pM; on TYK2 [6], 2940 pM; on JAK3 [7] it was 1290 pM; at JAK1 [8], 659 pM.

Regarding `CCc1cc(O)c(F)cc1-c1ccc2c(-c3nc4c([nH]3)CN(C(=O)NC3CCC3)C4)n[nH]c2c1` [MDI-260, N-cyclobutyl-2-(6-(2-ethyl-5-fluoro-4-hydroxyphenyl)-1H-indazol-3-yl)-4,6-dihydropyrrolo[3,4-d]imidazol-5(1H)-carboxamide], the half-inhibitory concentration (IC50) at JAK2 [5] was determined as 2990 pM; at TYK2 [6], 8980 pM; against JAK3 [7] it was 2470 pM; on JAK1 [8], 2280 pM.

Turning to `CCc1cc(O)c(F)cc1-c1ccc2c(-c3nc4c([nH]3)CN(C(=O)N3CC5(CNC5)C3)C4)n[nH]c2c1` [MDI-261, (2-(6-(2-ethyl-5-fluoro-4-hydroxyphenyl)-1H-indazol-3-yl)-4,6-dihydropyrrolo[3,4-d]imidazol-5(1H)-yl)(2,6-diazaspiro[3.3]heptan-2-yl)ketone], the IC50 on JAK2 [5] worked out at 703 pM; against TYK2 [6], 1160 pM; on JAK3 [7], 473 pM; on JAK1 [8] it was 154 pM.

On to `CCc1cc(O)c(F)cc1-c1ccc2c(-c3nc4c([nH]3)CN(C(=O)[C@@H]3CCCN3)C4)n[nH]c2c1` [MDI-262, (S)-6-(2-ethyl-5-fluoro-4-hydroxyphenyl)-3-(5-prolyl-1,4,5,6-tetrahydropyrrolo[3,4-d]imidazol-2-yl)-1H-indazol], for which the IC50 at JAK2 [5] worked out at 1540 pM; against TYK2 [6], 2590 pM; on JAK3 [7], 1220 pM; against JAK1 [8] it was 319 pM.

`CCc1cc(O)c(F)cc1-c1ccc2c(-c3nc4c([nH]3)CN(C(=O)[C@H]3CCCN3)C4)n[nH]c2c1` [MDI-263, (R)-6-(2-ethyl-5-fluoro-4-hydroxyphenyl)-3-(5-prolyl-1,4,5,6-tetrahydropyrrolo[3,4-d]imidazol-2-yl)-1H-indazol]: the concentration for half-maximal inhibition (IC50) came out at 717 pM against JAK2 [5], 717 pM on TYK2 [6], 458 pM against JAK3 [7] and 120 pM against JAK1 [8].
